This note sets out measurements from US20250049948A1, “NOVEL IONIZABLE LIPIDS AND LIPID NANOPARTICLES AND METHODS OF USING THE SAME” (Sail Biomedicines, Inc., priority 2021, published 2025).

Values joined by “and” are separate entries in the source; they are usually repeats but may differ in a detail not shown here. Equal entries are not always repeated.

Series [1] is described as follows: LNP size and polydispersity, Zetasizer Ultra. In kind it is physicochemical. The method, then: (§1) For each LNP composition, the lipid mix and mRNA solution were mixed at a 1:3 ratio by volume, respectively, on a NanoAssemblr Ignite (Precision Nanosystems) at a total flow rate of 9 mL/min. The resulting compositions were then loaded into Slide-A-Lyzer G2 dialysis cassettes (10 k MWCO) and dialyzed in 200 times sample volume of 1×PBS for 2 hours at room temperature with gentle stirring. The PBS was refreshed, and the compositions were further dialyzed for at least 14 hours at 4° C. with gentle stirring. The dialyzed compositions were then collected and concentrated by centrifugation at 3000×g using Amicon Ultra centrifugation filters (100 k MWCO). The concentrated particles were characterized for size, polydispersity, and particle concentration using Zetasizer Ultra (Malvern Panalytical) and for mRNA encapsulation efficiency using Quant-iT RiboGreen RNA Assay Kit (ThermoFisher Scientific).

Series [2] is described as follows: mRNA encapsulation efficiency, Quant-iT RiboGreen RNA Assay. In kind it is physicochemical. The method, then:
as §1

The subject of series [3] is Balb/c mice. Description: In-vivo bioluminescent imaging of LNP compositions (Example 6). As to conditions: mRNA dose 5 μg FLUC (CRE/FLUC 1:1 LNP).
In series [4] the test system is Balb/c mice. Description: In-vivo bioluminescent imaging of LNP compositions (Example 3). The settings on record: for Bioluminescence, Liver / Bioluminescence, Lung / Bioluminescence, Pancreas / Bioluminescence, Spleen / Bioluminescence, Whole body: LNP with 5 μg Fluc+5 μg EPO mRNA intravenously, 4-6 hours post-dose, two values per compound; for Bioluminescence, Whole body: FIG. 1: average radiance (p/s/cm2/sr); for Organ selectivity of delivery: bioluminescent imaging in mice, Example 3. From the text:
C12-200 is commercially available ionizable lipid and has a chemical name of 1,1′-((2-(4-(2-((2-(bis(2-hydroxydodecyl)amino)ethyl)(2-hydroxydodecyl) amino)ethyl)piperazin-1-yl)ethyl)azanediyl)bis(dodecan-2-ol). A composition composed of ionizable lipid:structural lipid:sterol:EG-lipid (C12-200:DOPE:cholesterol:14:0 PEG2000 PE) at a molar ratio of 35:16:46.5:2.5, respectively. Lipids were solubilized in ethanol. These lipids were mixed at the above-indicated molar ratios and diluted in ethanol (organic phase) to 5.5 mM total lipid concentration. The mRNA solution (aqueous phase) was prepared with RNAse-free water and 100 mM citrate buffer pH 3 for a final concentration of 50 mM citrate buffer. The ionizable lipid to mRNA N:P ratio maintained at 15:1.
All other compositions (i.e., compositions of MC3 (a commercially available ionizable lipid having a chemical name of (6Z,9Z,28Z,31Z)-heptatriacont-6,9,28,31-tetraene-19-yl 4-(dimethylamino)butanoate, and compositions of novel ionizable lipids 7669, 7671, 7668, […], 7650) were composed of ionizable lipid:structural lipid:sterol:PEG-lipid (SDA lipid #:DSPC:cholesterol:14:0 PEG2000 PE) at a molar ratio of 50:38.5:10:1.5, respectively. Lipids were solubilized in ethanol. Compositions were then handled as above, except the formulations were maintained at ionizable lipid to mRNA N:P ratio of 6:1. The lipid mix and mRNA solution were mixed at a 1:3 ratio by volume, respectively, on a NanoAssemblr Ignite (Precision Nanosystems) at a total flow rate of 9 mL/min. Resulting compositions were then loaded into Slide-A-Lyzer G2 dialysis cassettes (10 k MWCO) and dialyzed in 200 times sample volume of 1×PBS for 4 hrs at room temp with gentle stirring. The PBS was refreshed, and the compositions were further dialyzed for at least 14 hrs at 4° C. with gentle stirring. The dialyzed compositions were then collected and concentrated by centrifugation at 2000×g using Amicon Ultra centrifugation filters (100 k MWCO). Concentrated particles were characterized for size, polydispersity, and particle concentration using Zetasizer Ultra (Malvern Panalytical) and for mRNA encapsulation efficiency using Quant-iT RiboGreen RNA Assay Kit (ThermoFisher Scientific).
8-9 week old female Balb/c mice were utilized for bioluminescence-based ionizable lipid screening efforts. Mice were obtained from Jackson Laboratories (JAX Stock: 000651) and allowed to acclimate for one week prior to manipulations. Animals were placed under a heat lamp for a few minutes before introducing them to a restraining chamber. The tail was wiped with alcohol pads (Fisher Scientific) and 100 μL of a lipid nanoparticle composition described above containing 10 μg total mRNA (5 μg Fluc+5 μg EPO) was injected intravenously using a 29G insulin syringe (Covidien). Any resulting bleeding was stemmed using a sterile gauze pad (Fisher Scientific) and animals were placed back into their home cage. 4-6 hours post-dose, animals were injected with 200 μL of 15 mg/mL D-Luciferin (GoldBio) and placed in an isoflurane induction chamber set to deliver 2.5% isoflurane delivered at an oxygen flow rate of 1-2 liters per min. After 5 minutes of isoflurane exposure, mice were placed in set nose cones inside the IVIS Lumina LT imager (PerkinElmer). LivingImage software was utilized for imaging. Whole body bio-luminescence was captured at auto-exposure after which animals were removed from the IVIS and placed into a CO2 chamber for euthanasia. Cardiac puncture was performed on each animal after placing it in dorsal recumbency, and blood collection was performed using a 25G insulin syringe (BD). Blood was collected in Lithium-Heparin coated tubes (Fisher Scientific) and immediately placed on ice. Once all blood samples were collected, tubes were spun at 2000G for 10 minutes using a tabletop centrifuge and plasma was aliquoted into individual Eppendorf tubes (Fisher Scientific) and stored at −80 C for subsequent EPO quantification. […]

For the compound `CCCCCC(CCCCC)CCCN(C)C(=O)CCCCCCCN(CCCCCCCC(=O)N(C)CCCC(CCCCC)CCCCC)C(=O)CCN1CCCC1` [Compound 2242, N-methyl-8-(N-(8-(methyl(4-pentylnonyl)amino)-8-oxooctyl)-3-(pyrrolidin-1-yl)propanamido)-N-(4-pentylnonyl)octanamide], in series [1] (LNP with FLUC/EPO 1:1 mRNA), the PDI was found to be 0.079 and the “Size (nm)” value is 154.2 nm. In series [2] (LNP with FLUC/EPO 1:1 mRNA), the “% EE” value is 89.5%.
On to `CCCCCCC(CCCCCC)CCCOC(=O)CCCCCN(CCCCCC(=O)OCCCC(CCCCCC)CCCCCC)CCOCCOCCN(C)C` [Compound 2146, 4-hexyldecyl 11-(6-((4-hexyldecyl)oxy)-6-oxohexyl)-2-methyl-5,8-dioxa-2,11-diazaheptadecan-17-oate], for which, in series [3] (4-6 hours post-dose), the “Bioluminescence (IV) Liver” value is 9.7E + 04, the “Bioluminescence (IV) Lung” value was 1.2E + 03, the “Bioluminescence (IV) Spleen” value is reported as 4.7E + 04 and the “Bioluminescence (IV) Whole Body” value stood at 7.4E + 03. Besides, in series [3] (intravenous), the “Spleen: Liver Ratio” value is listed as 0.505. For the same compound, in series [1] (LNP with CRE/FLUC 1:1 mRNA), the PDI is on record as 0.26 and the “Size (nm)” value amounted to 81.0 nm. In addition, in series [2] (LNP with CRE/FLUC 1:1 mRNA), the “% EE” value worked out at 96.5%.
For `CCCCCCC(CCCCCC)CCCOC(=O)CCCCCCCN(CCO)CCCCCCCC(=O)OCCCC(CCCCCC)CCCCCC` [Compound 2136, bis(4-hexyldecyl) 8,8′-((2-hydroxyethyl)azanediyl)dioctanoate], in series [1] (LNP with EGFP mRNA), the PDI is recorded as 0.04 and the “Size (nm)” value is 77.5 nm. Moreover, the “% EE” value in series [2] (LNP with EGFP mRNA) came to 95.5%.
`CCCCCCC(CCCCCC)CCCOC(=O)CCCCCCCN(CCCCCCCC(=O)OCCCC(CCCCCC)CCCCCC)C(=O)CCN1CCCC1` [Compound 7671, 4-hexyldecyl 8-[[8-(4-hexyldecoxy)-8-oxo-octyl]-(3-pyrrolidin-1-ylpropanoyl)amino]octanoate]: in series [4], the “Bioluminescence, Liver” value is 296000 and 184000; the “Bioluminescence, Lung” value is 215000 and 180000; the “Bioluminescence, Pancreas” value is 141000 and 185000; the “Bioluminescence, Spleen” value was 422000 and 574000. Also, in series [4], the “Bioluminescence, Whole body” value is 780000 and 772000; the “Organ selectivity of delivery” value was “selectively targeted the pancreas and lung over the whole body, liver, or spleen”.
On to `CCCCC/C=C\C/C=C\CCCCCCCCC(CCCCCCCC/C=C\C/C=C\CCCCC)OC(=O)CCCN(C)C` [MC3, (6Z,9Z,28Z,31Z)-heptatriacont-6,9,28,31-tetraene-19-yl 4-(dimethylamino)butanoate, reference compound], for which, in series [4], the “Bioluminescence, Liver” value was 22000000 and 20300000; the “Bioluminescence, Lung” value was 300000 and 258000; the “Bioluminescence, Pancreas” value was 192000 and 232000; the “Bioluminescence, Spleen” value was 1660000 and 2060000.
In the case of `CCCCCCC(CCCCCC)CCCOC(=O)CCCCCCCN(CCCCCCCC(=O)OCCCC(CCCCCC)CCCCCC)CCC(O)CN(C)C` (stereo not drawn) [Compound 7676, 4-hexyldecyl 8-[[4-(dimethylamino)-3-hydroxy-butyl]-[8-(4-hexyldecoxy)-8-oxo-octyl]amino]octanoate], in series [4], the “Bioluminescence, Liver” value was 183000 and 161000; the “Bioluminescence, Lung” value was 262000 and 170000; the “Bioluminescence, Pancreas” value was 177000 and 220000; the “Bioluminescence, Spleen” value was 255000 and 259000. Further, in series [4], the “Bioluminescence, Whole body” value is 50900 and 30400; the “Organ selectivity of delivery” value was “selectively targeted the pancreas and lung over the whole body, liver, or spleen”.
As to `CCCCCCC(CCCCCC)CCCOC(=O)CCCCCCCN(CCCCCCCC(=O)OCCCC(CCCCCC)CCCCCC)CCOCCOCCN(C)C` [Compound 7669, 4-hexyldecyl 8-[2-[2-[2-(dimethylamino)ethoxy]ethoxy]ethyl-[8-(4-hexyldecoxy)-8-oxo-octyl]amino]octanoate], in series [4], the “Bioluminescence, Liver” value is 92400 and 129000; the “Bioluminescence, Lung” value is 73000 and 70100; the “Bioluminescence, Pancreas” value is 106000 and 87800; the “Bioluminescence, Spleen” value was 112000 and 91700. In addition, in series [4], the “Bioluminescence, Whole body” value is 5120 and 2920; the “Organ selectivity of delivery” value is “selectively targeted the pancreas and lung over the whole body, liver, or spleen”.
For the compound `CCCCCC(CCCCC)CCCOC(=O)CCCCCCCN(CCO)CCCCCCCC(=O)OCCCC(CCCCC)CCCCC` [Compound 2135, bis(4-pentylnonyl) 8,8′-((2-hydroxyethyl)azanediyl)dioctanoate], in series [1] (LNP with EGFP mRNA), the PDI was 0.04 and the “Size (nm)” value worked out at 81.8 nm. In addition, the “% EE” value in series [2] (LNP with EGFP mRNA) worked out at 96.2%.
With `CCCCCCCCCCC(O)CN(CCN1CCN(CCN(CC(O)CCCCCCCCCC)CC(O)CCCCCCCCCC)CC1)CCN(CC(O)CCCCCCCCCC)CC(O)CCCCCCCCCC` (stereo not drawn) [Compound C12-200, 1,1′-((2-(4-(2-((2-(bis(2-hydroxydodecyl)amino)ethyl)(2-hydroxydodecyl)amino)ethyl)piperazin-1-yl)ethyl)azanediyl)bis(dodecan-2-ol), reference compound], in series [4], the “Bioluminescence, Liver” value was 92300000 and 69700000; the “Bioluminescence, Pancreas” value is 236000 and 216000; the “Bioluminescence, Spleen” value was 1280000 and 1390000.
Turning to `CCCCCCC(CCCCCC)CCCOC(=O)CCCCCCCN(CCCCCCCC(=O)OCCCC(CCCCCC)CCCCCC)CCCCN(C)C` [Compound 7650, 4-hexyldecyl 8-[4-(dimethylamino)butyl-[8-(4-hexyldecoxy)-8-oxo-octyl]amino]octanoate], in series [4], the “Bioluminescence, Liver” value was 56300 and 83100; the “Bioluminescence, Lung” value was 150000 and 138000; the “Bioluminescence, Pancreas” value is 127000 and 87200; the “Bioluminescence, Spleen” value was 82400 and 108000. Further, in series [4], the “Bioluminescence, Whole body” value was 12100 and 10900; the “Organ selectivity of delivery” value is “selectively targeted the pancreas and lung over the whole body, liver, or spleen”.
For the compound `CCCCCCC(CCCCCC)CCCOC(=O)CCCCCCCN(CCCCCCCC(=O)OCCCC(CCCCCC)CCCCCC)C(=O)CCCN(C)C` [Compound 7668, 4-hexyldecyl 8-[4-(dimethylamino)butanoyl-[8-(4-hexyldecoxy)-8-oxo-octyl]amino]octanoate], in series [4], the “Bioluminescence, Spleen” value is 56400 and 60500; the “Bioluminescence, Whole body” value is 48500 and 26900; the “Organ selectivity of delivery” value is “selectively targeted the pancreas and lung over the whole body, liver, or spleen”.
